Measured values taken from patent US10500146B2, “Composition for skin whitening comprising amorphigeni as effective ingredient” (INDUSTRY-ACADEMIC COOPERATION FOUNDATION GYEONGSANG …, priority 2015, dated 2019).

Assays:
Format in all cases: cell-based
[1] = test system: B16F10 mouse melanoma cells; test: Cell viability (MTT analysis); conditions: amorphigeni at 100 nM and 1600 nM, 24 hours, FIG. 2
Protocol: B16F10 cells were cultured for 24 hours in a 96-well plate. Thereafter, they were treated with amorphigeni at various concentrations, and cultured for 24 hours. Subsequently, a MTT solution (5 μg/mL) was added to the cells, which were then cultured for 3 hours. After removing the medium and treating the cells with DMSO, the cells were cultured for 20 minutes. By using a microplate reader (Bio-Rad), absorbance at 595 nm was measured.
In Example 1, to find out functional plant metabolites which induce depigmentation in melanin cells, amorphigeni was isolated from roots of Amorpha fruticosa (FIG. 1). To determine the cytotoxicity of amorphigeni, B16F10 cells were treated with amorphigeni at various concentrations followed by culture for 24 hours. Then, based on MTT (3-(4,5-dimethylthiazol-2-yl)-2,5-diphenyltetrazolium bromide) analysis, cell viability was determined.

[2] = test system: B16F10 mouse melanoma cells; test: Cell cycle measurement, PI staining, flow cytometer; conditions: FIG. 3
[3] = test system: B16F10 mouse melanoma cells; test: Measurement of melanin content
Protocol: Measurement of melanin content was carried out by slightly modifying the method by Yang et al. (Yang et al., 2006, Acta pharmacologica Sinica 27, 1467-73). Specifically, B16F10 cells were inoculated into a 6-well plate and cultured for 24 hours. Thereafter, the cells were treated with amorphigeni and α-MSH, each at 1 μM, followed by culture for 48 hours. The cultured cells were collected after being subjected to trypsinization and dissolution in 1 N NaOH containing DMSO for 24 hours at 65° C. By using a microplate reader (Bio-Rad), melanin content was measured at 415 nm.
In order to see whether or not amorphigeni can suppress the pigmentation induced by α-MSH (melanocyte-stimulating hormone), B16F10 cells were treated with α-MSH and amorphigeni, either separately or simultaneously, followed by incubation for 72 hours. […] Namely, it was able confirm that, by reducing melanin content, amorphigeni of the present invention can suppress […].
Furthermore, after treating B16F10 melanin cells with α-MSH, amorphigeni, and 3MA all together for 48 hours, the melanin content and oxidation level of L-DOPA were measured (***P≤0.001).
In order to confirm whether or not amorphigeni causes degradation of melanosomes which have been previously produced by α-MSH, B16F10 melanin cells were treated for 48 hours with α-MSH to have synthesis of melanosomes. Thereafter, the cells were treated with amorphigeni for 48 hours, and melanin content was measured.
Furthermore, in order to see whether or not amorphigeni causes degradation of previously produced melanosomes via autophagy, B16F10 melanin cells were treated with α-MSH for 48 hours to have synthesis of melanosome. After that, the cells were treated with 3MA as an autophagy inhibitor for 48 hours. Then, the melanin content and protein expression level of tyrosinase and PMEL were measured (ns=no significance, *P≤0.05, **P≤0.01, ***P≤0.001).

C=C(CO)C1Cc2c(ccc3c2OC2COc4cc(OC)c(OC)cc4C2C3=O)O1 (stereo not drawn) [amorphigeni] was tested, and the “cytotoxicity (cell viability, MTT)” value [1] was “low cytotoxicity”, the “cell death (cell cycle, PI staining)” value [2] was “without inducing any cell death” and the “content of the previously formed melanin” value ([3]; α-MSH 48 hours, then amorphigeni 48 hours, FIG. 10) was “effectively lowered”. For the same compound, the “melanin content (previously formed)” value ([3]; α-MSH 48 hours, then amorphigeni and 3MA 48 hours, versus α-MSH and amorphigeni, FIG. 11) was “increased again”, the melanin content ([3]; α-MSH and amorphigeni together versus α-MSH only, 72 hours, FIG. 4A) was “tend to decease” and the melanin content ([3]; α-MSH, amorphigeni and 3MA together, 48 hours, versus α-MSH and amorphigeni, FIG. 9A) was “increased again”.
